Source: patent US9175011B2, “Morpholino substituted urea or carbamate derivatives as MTOR inhibitors” (CELLZOME LIMITED, priority 2011, dated 2015)
pIC50: −log10 of the molar value.

Assays:
mTOR = molecular target: T1, mTOR (Homo sapiens, UniProt P42345); assay: mTOR kinobeads assay (Jurkat cell lysate, dot blot detection); type: binding; details: read-out: Inhibition values (IC50) mTor
T1 construct: Jurkat cells were homogenized in a Potter S homogenizer in lysis buffer; endogenous in cells; host or cells: Jurkat, clone E6-1 (ATCC TIB-152) lysate
Outline: (§1)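 IC50 values derive from dose-response curves of each kinase's capture, measured by specific-antibody dot blot and infrared detection after SDS elution. Compound competed with phenylthiazole and phenylmorpholin-chromen ligand beads for endogenous kinase in Jurkat lysate (5 mg/ml protein) during a three-hour cold-room incubation.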

PI3K alpha (PI3Kα) = molecular target: T2, PI3K alpha (PI3Kα) (Homo sapiens, UniProt P42336); assay: kinobeads assay, PI3K alpha; type: binding; details: Jurkat cell lysate, read-out: Inhibition values (IC50) PI3Ka
T2 construct: Jurkat cells were homogenized in a Potter S homogenizer in lysis buffer; endogenous in cells; host or cells: Jurkat, clone E6-1 (ATCC TIB-152) lysate
Outline: as §1

PI3K beta (PI3Kb) = molecular target: T3, PI3K beta (PI3Kb) (Homo sapiens, UniProt P42338); assay: kinobeads assay, PI3K beta; type: binding; details: Jurkat cell lysate, read-out: Inhibition values (IC50) PI3Kb
T3 construct: Jurkat cells were homogenized in a Potter S homogenizer in lysis buffer; endogenous in cells; host or cells: Jurkat, clone E6-1 (ATCC TIB-152) lysate
Outline: as §1

PI3K gamma (PI3Kg) = molecular target: T4, PI3K gamma (PI3Kg) (Homo sapiens, UniProt P48736); assay: kinobeads assay, PI3K gamma; type: binding; details: Jurkat cell lysate, read-out: Inhibition values (IC50) PI3Kg
T4 construct: Jurkat cells were homogenized in a Potter S homogenizer in lysis buffer; endogenous in cells; host or cells: Jurkat, clone E6-1 (ATCC TIB-152) lysate
Outline: as §1

PI3K delta (PI3Kd) = molecular target: T5, PI3K delta (PI3Kd) (Homo sapiens, UniProt O00329); assay: kinobeads assay, PI3K delta; type: binding; details: Jurkat cell lysate, read-out: Inhibition values (IC50) PI3Kd
T5 construct: Jurkat cells were homogenized in a Potter S homogenizer in lysis buffer; endogenous in cells; host or cells: Jurkat, clone E6-1 (ATCC TIB-152) lysate
Outline: as §1

[1] = molecular target: T6, DNA-dependent protein kinase (DNA-PK) (Homo sapiens, UniProt P78527); assay: kinobeads assay, DNA-PK; type: binding; details: Jurkat cell lysate, read-out: Inhibition values (IC50) DNA-PK
T6 construct: Jurkat cells were homogenized in a Potter S homogenizer in lysis buffer; endogenous in cells; host or cells: Jurkat, clone E6-1 (ATCC TIB-152) lysate
Outline: as §1

[2] = tested on: S6RP serine-240/244 phosphorylation; assay: In vitro phospho-S6 cellular assay (HEK293T/17); type: cell-based; details: Homo sapiens; HEK293T/17 cells, 2 hours, pS6RP Ser240/244; read-out: Inhibition values (IC50) pS6
Outline: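 HEK293T/17 cells in DMEM with 2% FCS were exposed to 8 compound concentrations (0.1% DMSO) for 2 h at 37 °C, then lysed. pS6RP Ser240/244 or pAkt Ser473 in the lysates was quantified by MSD sandwich electrochemiluminescence. IC50 was obtained by sigmoidal variable-slope nonlinear regression.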

T4 sequence (P48736 whole entry): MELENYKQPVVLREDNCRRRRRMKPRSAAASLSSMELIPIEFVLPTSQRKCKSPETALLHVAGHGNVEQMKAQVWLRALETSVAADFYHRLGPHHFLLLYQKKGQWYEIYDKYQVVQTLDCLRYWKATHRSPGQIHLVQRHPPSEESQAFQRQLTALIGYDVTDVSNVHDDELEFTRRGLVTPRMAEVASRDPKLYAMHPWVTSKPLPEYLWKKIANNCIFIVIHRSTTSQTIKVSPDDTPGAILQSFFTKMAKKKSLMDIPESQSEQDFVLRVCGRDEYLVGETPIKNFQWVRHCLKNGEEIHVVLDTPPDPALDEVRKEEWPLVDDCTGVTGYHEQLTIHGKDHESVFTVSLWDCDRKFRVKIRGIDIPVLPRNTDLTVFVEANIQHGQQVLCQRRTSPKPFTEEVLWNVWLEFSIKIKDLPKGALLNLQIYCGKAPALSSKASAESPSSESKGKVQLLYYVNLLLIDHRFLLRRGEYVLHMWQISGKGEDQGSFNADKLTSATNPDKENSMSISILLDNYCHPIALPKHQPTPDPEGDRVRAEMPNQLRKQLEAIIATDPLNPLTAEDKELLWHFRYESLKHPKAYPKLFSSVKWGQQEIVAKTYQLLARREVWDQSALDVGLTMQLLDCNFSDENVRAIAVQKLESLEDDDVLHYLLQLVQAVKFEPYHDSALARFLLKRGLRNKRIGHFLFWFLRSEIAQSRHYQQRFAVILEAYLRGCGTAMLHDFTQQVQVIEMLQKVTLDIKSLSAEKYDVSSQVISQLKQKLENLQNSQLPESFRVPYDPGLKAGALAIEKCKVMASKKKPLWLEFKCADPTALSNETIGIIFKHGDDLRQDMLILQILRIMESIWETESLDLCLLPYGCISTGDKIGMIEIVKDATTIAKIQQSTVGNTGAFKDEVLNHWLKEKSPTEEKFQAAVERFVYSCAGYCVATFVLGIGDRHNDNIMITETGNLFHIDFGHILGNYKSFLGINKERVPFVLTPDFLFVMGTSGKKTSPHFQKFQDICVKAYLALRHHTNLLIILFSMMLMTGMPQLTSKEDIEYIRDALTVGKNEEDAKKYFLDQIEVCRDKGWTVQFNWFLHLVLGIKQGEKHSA
T2 sequence (P42336 whole entry): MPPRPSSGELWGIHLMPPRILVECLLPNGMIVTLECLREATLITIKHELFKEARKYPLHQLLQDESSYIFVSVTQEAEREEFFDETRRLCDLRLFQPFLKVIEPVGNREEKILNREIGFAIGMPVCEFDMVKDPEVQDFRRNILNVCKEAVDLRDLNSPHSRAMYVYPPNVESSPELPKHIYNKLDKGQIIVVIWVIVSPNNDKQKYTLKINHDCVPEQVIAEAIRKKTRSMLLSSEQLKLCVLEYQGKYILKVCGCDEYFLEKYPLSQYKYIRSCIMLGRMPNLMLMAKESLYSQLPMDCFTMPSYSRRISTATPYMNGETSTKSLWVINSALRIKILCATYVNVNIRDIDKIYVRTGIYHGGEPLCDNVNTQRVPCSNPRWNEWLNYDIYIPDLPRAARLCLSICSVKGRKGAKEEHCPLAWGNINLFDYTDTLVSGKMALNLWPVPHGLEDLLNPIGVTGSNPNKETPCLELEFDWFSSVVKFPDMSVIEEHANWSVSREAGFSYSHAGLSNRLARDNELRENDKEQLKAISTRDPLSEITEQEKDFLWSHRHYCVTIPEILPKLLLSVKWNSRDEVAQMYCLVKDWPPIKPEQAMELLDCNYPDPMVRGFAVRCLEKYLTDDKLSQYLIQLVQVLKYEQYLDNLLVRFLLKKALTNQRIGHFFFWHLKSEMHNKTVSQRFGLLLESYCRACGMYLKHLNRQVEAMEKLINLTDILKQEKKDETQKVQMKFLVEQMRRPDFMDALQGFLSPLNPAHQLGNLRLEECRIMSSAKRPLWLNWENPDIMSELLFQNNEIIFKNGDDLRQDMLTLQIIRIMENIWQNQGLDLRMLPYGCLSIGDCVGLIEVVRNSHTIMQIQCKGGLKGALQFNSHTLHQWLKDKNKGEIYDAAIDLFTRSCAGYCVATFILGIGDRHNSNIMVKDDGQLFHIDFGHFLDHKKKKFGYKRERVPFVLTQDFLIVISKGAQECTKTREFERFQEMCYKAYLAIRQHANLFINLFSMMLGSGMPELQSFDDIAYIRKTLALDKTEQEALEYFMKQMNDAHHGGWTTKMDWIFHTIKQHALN
T2 sequence (P27986 whole entry partner): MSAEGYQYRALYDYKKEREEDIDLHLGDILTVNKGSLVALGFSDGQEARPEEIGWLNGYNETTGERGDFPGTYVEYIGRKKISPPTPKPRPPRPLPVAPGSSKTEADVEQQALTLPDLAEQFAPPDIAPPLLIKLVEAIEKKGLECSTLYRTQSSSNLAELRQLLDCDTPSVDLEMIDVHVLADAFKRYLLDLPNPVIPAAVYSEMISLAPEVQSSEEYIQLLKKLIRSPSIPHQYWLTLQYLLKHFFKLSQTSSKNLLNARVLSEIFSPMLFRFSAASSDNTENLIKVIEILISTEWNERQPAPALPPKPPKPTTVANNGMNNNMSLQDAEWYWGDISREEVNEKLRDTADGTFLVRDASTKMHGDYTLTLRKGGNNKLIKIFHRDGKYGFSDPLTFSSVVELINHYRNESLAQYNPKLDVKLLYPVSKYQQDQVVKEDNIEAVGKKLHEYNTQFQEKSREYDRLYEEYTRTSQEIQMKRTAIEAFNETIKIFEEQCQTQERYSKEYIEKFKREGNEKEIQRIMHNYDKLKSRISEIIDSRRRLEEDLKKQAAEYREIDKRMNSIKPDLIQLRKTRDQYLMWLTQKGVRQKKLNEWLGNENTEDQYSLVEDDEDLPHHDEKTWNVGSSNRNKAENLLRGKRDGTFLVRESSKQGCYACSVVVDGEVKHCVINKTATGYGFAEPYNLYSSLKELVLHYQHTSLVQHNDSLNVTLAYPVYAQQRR
T5 sequence (O00329 whole entry): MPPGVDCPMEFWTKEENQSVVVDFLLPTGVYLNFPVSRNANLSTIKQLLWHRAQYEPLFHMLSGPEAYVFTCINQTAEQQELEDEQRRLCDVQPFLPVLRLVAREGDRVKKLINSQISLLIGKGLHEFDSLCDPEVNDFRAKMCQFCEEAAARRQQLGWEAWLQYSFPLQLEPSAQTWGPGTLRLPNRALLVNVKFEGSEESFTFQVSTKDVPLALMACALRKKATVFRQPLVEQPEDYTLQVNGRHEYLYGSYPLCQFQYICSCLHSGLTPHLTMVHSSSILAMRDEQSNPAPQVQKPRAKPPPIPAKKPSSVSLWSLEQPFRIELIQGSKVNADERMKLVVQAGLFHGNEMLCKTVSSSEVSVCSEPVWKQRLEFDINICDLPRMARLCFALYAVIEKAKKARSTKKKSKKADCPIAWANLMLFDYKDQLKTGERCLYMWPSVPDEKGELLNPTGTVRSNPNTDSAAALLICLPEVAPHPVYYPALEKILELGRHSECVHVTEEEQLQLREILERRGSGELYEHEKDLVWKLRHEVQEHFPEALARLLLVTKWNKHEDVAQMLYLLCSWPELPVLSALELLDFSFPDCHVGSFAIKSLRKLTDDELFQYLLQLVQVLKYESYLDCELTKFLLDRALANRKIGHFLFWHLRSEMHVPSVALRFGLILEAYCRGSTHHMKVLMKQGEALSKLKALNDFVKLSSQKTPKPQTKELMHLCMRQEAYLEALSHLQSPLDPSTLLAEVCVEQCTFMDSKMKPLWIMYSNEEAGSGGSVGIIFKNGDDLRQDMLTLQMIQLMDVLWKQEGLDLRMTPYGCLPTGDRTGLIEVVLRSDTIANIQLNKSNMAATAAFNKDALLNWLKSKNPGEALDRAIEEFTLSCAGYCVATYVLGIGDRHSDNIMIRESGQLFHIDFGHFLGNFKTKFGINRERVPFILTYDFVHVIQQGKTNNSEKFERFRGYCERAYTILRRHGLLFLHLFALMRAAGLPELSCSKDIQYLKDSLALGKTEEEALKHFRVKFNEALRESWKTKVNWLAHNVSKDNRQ
T5 sequence (P27986 whole entry partner): as the sequence (P27986 whole entry partner) above
T3 sequence (P42338 whole entry): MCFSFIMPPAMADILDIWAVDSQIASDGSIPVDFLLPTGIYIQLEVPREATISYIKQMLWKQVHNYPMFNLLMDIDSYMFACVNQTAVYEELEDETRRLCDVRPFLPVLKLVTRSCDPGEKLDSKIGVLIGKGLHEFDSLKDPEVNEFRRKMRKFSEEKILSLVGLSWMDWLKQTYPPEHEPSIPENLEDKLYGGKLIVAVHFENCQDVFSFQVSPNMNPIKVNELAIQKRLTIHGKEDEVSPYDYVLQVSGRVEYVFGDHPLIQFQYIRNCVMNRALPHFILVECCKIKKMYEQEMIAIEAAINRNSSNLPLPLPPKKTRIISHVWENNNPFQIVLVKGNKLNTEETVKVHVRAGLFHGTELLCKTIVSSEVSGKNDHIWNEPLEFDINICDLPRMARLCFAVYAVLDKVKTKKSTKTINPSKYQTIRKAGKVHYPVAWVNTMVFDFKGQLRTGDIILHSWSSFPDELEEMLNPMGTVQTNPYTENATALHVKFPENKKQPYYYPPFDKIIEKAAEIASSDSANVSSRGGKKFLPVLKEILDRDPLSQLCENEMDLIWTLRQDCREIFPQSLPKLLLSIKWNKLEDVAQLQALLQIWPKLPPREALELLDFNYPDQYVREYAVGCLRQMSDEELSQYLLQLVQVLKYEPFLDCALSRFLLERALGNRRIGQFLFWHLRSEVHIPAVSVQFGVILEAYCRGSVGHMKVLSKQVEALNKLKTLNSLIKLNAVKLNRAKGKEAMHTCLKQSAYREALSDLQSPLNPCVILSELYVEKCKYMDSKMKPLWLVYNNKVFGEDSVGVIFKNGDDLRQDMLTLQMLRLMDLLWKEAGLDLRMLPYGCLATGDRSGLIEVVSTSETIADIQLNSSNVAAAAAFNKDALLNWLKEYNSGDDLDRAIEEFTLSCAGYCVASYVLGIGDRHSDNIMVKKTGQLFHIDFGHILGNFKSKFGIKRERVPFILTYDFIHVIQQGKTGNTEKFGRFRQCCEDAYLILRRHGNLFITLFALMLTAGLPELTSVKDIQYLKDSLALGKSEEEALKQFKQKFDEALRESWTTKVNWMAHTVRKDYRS
T3 sequence (P27986 whole entry partner): as the sequence (P27986 whole entry partner) above

Row | Structure (SMILES) | pIC50 (mTOR) | pIC50 (PI3K alpha (PI3Kα)) | pIC50 (PI3K beta (PI3Kb)) | pIC50 (PI3K gamma (PI3Kg)) | pIC50 (PI3K delta (PI3Kd)) | pIC50 [1] | pIC50 [2]
1 | C[C@H]1COCCN1c1nc(-c2ccc(NC(=O)NCC(F)(F)F)cc2)nc(-c2ccccc2S(C)(=O)=O)n1 [Example 32, (S)-1-(4-(4-(3-methylmorpholino)-6-(2-(methylsulfonyl)phenyl)-1,3,5-triazin-2-yl)phenyl)-3-(2,2,2-trifluoroethyl)urea] | 6.00 to 7.00 | < 5.00 | < 5.00 | < 5.00 | < 5.00 | < 5.00 | > 7.00
2 | C[C@H]1COCCN1c1nc(-c2ccc(NC(=O)NCC(O)C(F)(F)F)cc2)nc(-c2ccccc2S(C)(=O)=O)n1 (stereo partly drawn) [Example 33, 1-(4-(4-((S)-3-methylmorpholino)-6-(2-(methylsulfonyl)phenyl)-1,3,5-triazin-2-yl)phenyl)-3-(3,3,3-trifluoro-2-hydroxypropyl)urea] | 6.00 to 7.00 | < 5.00 | < 5.00 | < 5.00 | < 5.00 | < 5.00 | 6.00 to 7.00
3 | C[C@H]1COCCN1c1nc(-c2ccc(NC(=O)NC3CCOC3)cc2)nc(-c2ccccc2S(C)(=O)=O)n1 (stereo partly drawn) [Example 34, 1-(4-(4-((S)-3-methylmorpholino)-6-(2-(methylsulfonyl)phenyl)-1,3,5-triazin-2-yl)phenyl)-3-(tetrahydrofuran-3-yl)urea] | 6.00 to 7.00 | < 5.00 | < 5.00 | < 5.00 | < 5.00 | < 5.00 | 6.00 to 7.00
4 | C[C@H]1COCCN1c1nc(-c2ccc(NC(=O)Nc3ccncc3)cc2)nc(-c2ccccc2S(C)(=O)=O)n1 [Example 35, (S)-1-(4-(4-(3-methylmorpholino)-6-(2-(methylsulfonyl)phenyl)-1,3,5-triazin-2-yl)phenyl)-3-(pyridin-4-yl)urea] | 6.00 to 7.00 | < 5.00 | < 5.00 | < 5.00 | < 5.00 | < 5.00 | > 7.00
5 | CCC1COCCN1c1nc(-c2ccc(NC(=O)NC3CC3)cc2)nc(-c2ccccc2S(C)(=O)=O)n1 (centres unmarked) [Example 36, 1-cyclopropyl-3-(4-(4-(3-ethylmorpholino)-6-(2-(methylsulfonyl)phenyl)-1,3,5-triazin-2-yl)phenyl)urea] | 6.00 to 7.00 | < 5.00 | < 5.00 | < 5.00 | < 5.00 | < 5.00 | > 7.00
